ChEMBL document CHEMBL5137008, “Recent advances of antitumor shikonin/alkannin derivatives: A comprehensive overview focusing on structural classification, synthetic approaches, and mechanisms of action” (Eur J Med Chem, 2022)

Assays:
HeLa [1] = experiment: cells; details: Homo sapiens, 24 h
[2] = Antitubulin activity against bovine brain tubulin polymerization preincubated with compound followed by GTP addition by turbidimetry-based spectrophotometric method; parameters: species or system Bos taurus
HepG2 [3] = experiment: Anticancer activity against human HepG2 cells assessed as inhibition of cell growth incubated for 24 hrs by MTT assay; type: functional, cell-based; details: HepG2, 24 h
[4] = Anticancer activity against human A875 cells assessed as inhibition of cell growth incubated for 24 hrs by MTT assay; type: functional, cell-based; details: A875, 24 h
[5] = Cytotoxicity against human L02 cells assessed as inhibition of cell growth incubated for 24 hrs by MTT assay; type: toxicity, cell-based
Ca9-22 [6] = experiment: Cytotoxicity against human Ca9-22 cells assessed as reduction in cell viability incubated for 48 hrs by MTT assay; type: functional, cell-based; details: Ca9-22, 48 h
Ca9-22 [7] = experiment: Cytotoxicity against human Ca9-22 cells assessed as reduction in cell viability incubated for 24 hrs by MTT assay; type: functional, cell-based; details: Ca9-22, 24 h
[8] = Antitumor activity against human WM9 cells assessed as reduction in cell viability incubated for 72 hrs by XTT assay; type: functional, cell-based; details: WM9, 72 h
MUGMel2 = experiment: Antitumor activity against human MUG-Mel2 cells assessed as reduction in cell viability incubated for 72 hrs by XTT assay; type: functional, cell-based; details: MUGMel2, 72 h
WM164 = experiment: Antitumor activity against human WM164 cells assessed as reduction in cell viability incubated for 72 hrs by XTT assay; type: functional, cell-based; details: WM164, 72 h
SBcl2 = experiment: Antitumor activity against human SBcl2 cells assessed as reduction in cell viability incubated for 72 hrs by XTT assay; type: functional, cell-based; details: SBcl2, 72 h
MOLT-4 = experiment: Anticancer activity against human MOLT-4 cells assessed as inhibition of cell proliferation incubated for 72 hrs by SRB assay; type: functional, cell-based; details: MOLT-4, 72 h
SJRH30 = experiment: Anticancer activity against human Rh30 cells assessed as inhibition of cell proliferation incubated for 72 hrs by SRB assay; type: functional, cell-based; details: SJRH30, 72 h
A549 [9] = experiment: Anticancer activity against human A549 cells assessed as inhibition of cell proliferation incubated for 72 hrs by SRB assay; type: functional, cell-based; details: A549, 72 h
Sarcoma-180 = experiment: Antitumor activity against mouse Sarcoma-180 cells xenografted in ip dosed ICR mouse assessed as tumor growth inhibition rate administered daily for 7 days relative to control; type: functional; details: time 7 day
SMMC-7721 [10] = experiment: Anticancer activity against human SMMC-7721 cells assessed as inhibition of cell proliferation incubated for 48 hrs by MTT assay; type: functional, cell-based; details: SMMC-7721, 48 h
U-87 MG [11] = experiment: Anticancer activity against human U87 cells assessed as inhibition of cell proliferation incubated for 48 hrs by MTT assay; type: functional, cell-based, U-87MG ATCC
MGC-803 [12] = experiment: Anticancer activity against human MGC-803 cells assessed as inhibition of cell proliferation incubated for 48 hrs by MTT assay; type: functional, cell-based; details: MGC-803, 48 h
SNU1 = experiment: Anticancer activity against human SNU1 cells assessed as reduction in cell viability for 72 hrs by MTT assay; type: functional, cell-based; details: SNU1, 72 h
L1210 [13] = experiment: Anticancer activity against mouse L1210 cells; type: functional; details: read-out: ED50 (the source's name)
L1210 [14] = experiment: Anticancer activity against mouse L1210 cells assessed as reduction in cell viability for 72 hrs by MTT assay; type: functional; details: read-out: ED50 (the source's name)
SGC-7901 [15] = experiment: Anticancer activity against human SGC-7901 cells assessed as inhibition of cell proliferation incubated for 48 hrs by MTT assay; type: functional, cell-based; details: SGC-7901, 48 h
A549 [16] = experiment: Anticancer activity against human A549 cells; type: functional; details: read-out: ED50 (the source's name)
A549 [17] = experiment: Anticancer activity against human A549 cells assessed as inhibition of cell growth incubated for 72 hrs by MTT assay; type: functional, cell-based; details: A549, 72 h
[18] = Anticancer activity against human A875 cells assessed as inhibition of cell growth incubated for 72 hrs by MTT assay; type: functional, cell-based; details: A875, 72 h
SW872 = experiment: Anticancer activity against human SW872 cells assessed as inhibition of cell growth incubated for 72 hrs by MTT assay; type: functional, cell-based; details: SW872, 72 h
HeLa [19] = experiment: Antiproliferative activity against human HeLa cells assessed as inhibition of cell growth incubated for 24 hrs by MTT assay; type: functional, cell-based
MDA-MB-231 [20] = experiment: Antiproliferative activity against human MDA-MB-231 cells assessed as inhibition of cell growth incubated for 24 hrs by MTT assay; type: functional, cell-based; details: MDA-MB-231, 24 h
U-87 MG [21] = experiment: Anticancer activity against human U87 cells incubated for 48 hrs by MTT assay; type: functional, cell-based, U-87MG ATCC
A549 [22] = experiment: Antiproliferative activity against human A549 cells assessed as inhibition of cell growth incubated for 24 hrs by MTT assay; type: functional, cell-based; details: A549, 24 h
MGC-803 [23] = experiment: Anticancer activity against human MGC-803 cells incubated for 48 hrs by MTT assay; type: functional, cell-based; details: MGC-803, 48 h
SMMC-7721 [24] = experiment: Anticancer activity against human SMMC-7721 cells incubated for 48 hrs by MTT assay; type: functional, cell-based; details: SMMC-7721, 48 h
[25] = Cytotoxicity against human L02 cells incubated for 48 hrs by MTT assay; type: toxicity, cell-based
SGC-7901 [26] = experiment: Anticancer activity against human SGC-7901 cells incubated for 48 hrs by MTT assay; type: functional, cell-based; details: SGC-7901, 48 h
[27] = Cytotoxicity against human MCF-10A incubated for 24 hrs by MTT assay; type: toxicity, cell-based; details: MCF-10A cells
MG-63 = experiment: Antiproliferative activity against human MG-63 cells incubated for 24 hrs by MTT assay; type: functional, cell-based; details: MG-63, 24 h
B16-F10 = experiment: Antiproliferative activity against mouse B16-F10 cells incubated for 24 hrs by MTT assay; type: functional, cell-based; details: B16-F10, 24 h
[28] = Cytotoxicity against human L02 incubated for 24 hrs by MTT assay; type: toxicity, cell-based; details: L02 cells
[29] = Cytotoxicity against African green monkey Vero cells incubated for 24 hrs by MTT assay; type: toxicity, cell-based, Chlorocebus sabaeus
MCF7 = experiment: Antiproliferative activity against human MCF7 cells incubated for 24 hrs by MTT assay; type: functional, cell-based; details: MCF7, 24 h
MDA-MB-231 [30] = experiment: Antiproliferative activity against human MDA-MB-231 cells incubated for 24 hrs by MTT assay; type: functional, cell-based; details: MDA-MB-231, 24 h
HepG2 [31] = experiment: Antiproliferative activity against human HepG2 cells incubated for 24 hrs by MTT assay; type: functional, cell-based; details: HepG2, 24 h

Structure (SMILES): CC(C)=CC[C@@H](OC(=O)CCCOc1ccc(Cl)cc1C)C1=CC(=O)c2c(O)ccc(O)c2C1=O
- IC50 (HeLa [1]): 4440 nM
- IC50 [2]: 16900 nM
- IC50 (HepG2 [3]): 430 nM
- IC50 [4]: 1520 nM
- IC50 at 24 h [5]: > 100000 nM

Structure (SMILES): CC(C)=CC[C@@H](OC(=O)C(C)C)C1=CC(=O)c2c(O)ccc(O)c2C1=O [ISOBUTYLSHIKONIN]
- IC50 (Ca9-22 [6]): 1800 nM
- IC50 (Ca9-22 [7]): 1980 nM

Structure (SMILES): CC(C)=CC[C@@H](OC(=O)C=C(C)C)C1=CC(=O)c2c(O)ccc(O)c2C1=O [DIMETHYLACRYLSHIKONIN]
- IC50 [8]: 2700 nM
- IC50 (MUGMel2): 7200 nM
- IC50 (WM164): 8300 nM
- IC50 (SBcl2): 1100 nM

Structure (SMILES): CC(C)=CC[C@@H](OC(=O)c1ccco1)C1=CC(=O)c2c(O)ccc(O)c2C1=O
- IC50 (MOLT-4): 300 nM
- IC50 (SJRH30): 470 nM
- IC50 (A549 [9]): 460 nM

Structure (SMILES): COc1cccc2c1C(=O)c1c(O)c3c(c(O)c1C2=O)C[C@@](O)(C(=O)CO)C[C@@H]3O[C@H]1C[C@H](N)[C@H](O)[C@H](C)O1.Cl [DOXORUBICIN HYDROCHLORIDE]
- T/C (Sarcoma-180): 315%
- IC50 (SMMC-7721 [10]): 460 nM
- IC50 (U-87 MG [11]): 570 nM
- IC50 (MGC-803 [12]): 480 nM
- IC50 (SNU1): 2010 nM
- EC50 (L1210 [13]): 0.016 µg/mL
- EC50 (L1210 [14]): 0.07 µg/mL
- IC50 (SGC-7901 [15]): 720 nM
- EC50 (A549 [16]): 1.01 µg/mL

Structure (SMILES): CC(C)=CC[C@@H](OC(=O)/C=C/c1ccc(F)c(F)c1)C1=CC(=O)c2c(O)ccc(O)c2C1=O
- IC50 (A549 [17]): 2100 nM
- IC50 [18]: 550 nM
- IC50 (SW872): 360 nM

Structure (SMILES): COc1cccc2c1C(=O)c1c(O)c3c(c(O)c1C2=O)C[C@@](O)(C(=O)CO)C[C@@H]3O[C@H]1C[C@H](N)[C@H](O)[C@H](C)O1 [DOXORUBICIN]
- IC50 (HeLa [19]): 4610 nM
- IC50 (MDA-MB-231 [20]): 4210 nM
- IC50 (U-87 MG [21]): 570 nM
- IC50 (A549 [22]): 5130 nM
- IC50 (MGC-803 [23]): 480 nM
- IC50 (SMMC-7721 [24]): 460 nM
- IC50 at 48 h [25]: > 100000 nM
- IC50 (SGC-7901 [26]): 720 nM

Structure (SMILES): CC(=O)O[C@@H]1[C@@H](OC(C)=O)[C@H](Sc2cc(O)c3c(c2O)C(=O)C=C([C@@H](CC=C(C)C)SC2OC[C@@H](OC(C)=O)[C@H](OC(C)=O)[C@H]2OC(C)=O)C3=O)OC[C@H]1OC(C)=O (stereo partly drawn)
- IC50 at 24 h [27]: 78100 nM
- IC50 (MG-63): 1220 nM
- IC50 [2]: 4670 nM
- IC50 (B16-F10): 4530 nM
- IC50 at 24 h [28]: 132000 nM
- IC50 at 24 h [29]: 82500 nM
- IC50 (MCF7): 2370 nM
- IC50 (MDA-MB-231 [30]): 10600 nM
- IC50 (HepG2 [31]): 1220 nM

Structure (SMILES): CC(C)=CC[C@@H](OC(=O)Cc1ccc(Oc2ccccc2)cc1)C1=CC(=O)c2c(O)ccc(O)c2C1=O
- IC50 (HeLa [1]): 4310 nM
- IC50 [2]: 4310 nM
- IC50 (HepG2 [3]): 426 nM
- IC50 [4]: 1240 nM
- IC50 at 24 h [5]: > 100000 nM

Structure (SMILES): CC(C)=CC[C@@H](OC(=O)CCC(=O)Nc1ccc(Oc2ccccc2)cc1)C1=CC(=O)c2c(O)ccc(O)c2C1=O
- IC50 (U-87 MG [21]): 3800 nM
- IC50 (MGC-803 [23]): 4100 nM
- IC50 (SMMC-7721 [24]): 20600 nM
- IC50 at 48 h [25]: > 50000 nM
- IC50 (SGC-7901 [26]; read-out: IC50): 4100 nM
